# Source: US20200087248A1, “Fluoroallylamine Derivative And Use Thereof” (SICHUAN KELUN-BIOTECH BIOPHARMACEUTICAL CO., LTD., priority 2017, published 2020)
# Structures can show the parent of a compound that is named as a salt.
# Columns and labels:
# MAO-B = molecular target: T1, MAO-B (Homo sapiens, UniProt P27338); assay: Inhibition of the enzymatic activity of MAO-B; type: biochemical; conditions: range of IC50 from inhibition rates at 10 μM, 1 μM and 0.1 μM; read-out: IC50, inhibition against the enzymatic activity of MAO-B
# T1 construct: purchased Sigma Aldrich
# T1 sequence (P27338 1-520): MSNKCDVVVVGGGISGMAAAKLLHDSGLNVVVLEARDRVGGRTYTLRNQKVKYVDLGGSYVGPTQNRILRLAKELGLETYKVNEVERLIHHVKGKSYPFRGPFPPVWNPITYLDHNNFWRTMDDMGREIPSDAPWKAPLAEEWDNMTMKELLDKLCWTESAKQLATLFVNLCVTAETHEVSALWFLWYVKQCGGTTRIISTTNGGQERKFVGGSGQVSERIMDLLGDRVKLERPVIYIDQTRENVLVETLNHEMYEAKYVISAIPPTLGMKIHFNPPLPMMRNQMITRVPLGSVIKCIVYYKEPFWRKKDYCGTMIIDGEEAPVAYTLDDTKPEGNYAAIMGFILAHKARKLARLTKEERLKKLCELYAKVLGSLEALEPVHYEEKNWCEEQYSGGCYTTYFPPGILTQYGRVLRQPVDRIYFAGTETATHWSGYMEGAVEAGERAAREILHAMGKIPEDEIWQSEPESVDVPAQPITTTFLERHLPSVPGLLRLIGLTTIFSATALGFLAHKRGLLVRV
# Protocol: Inhibition Experiment Against the Enzymatic Activity of MAO-B (Monoamine Oxidase Type B)
# (§1) 1. Test kit: Amplex® Red Monoamine Oxidase Assay, Manufacturer: ThermoFisher
# Protein: MAO-B, manufacturer: Sigma Aldrich
# According to the method as described in the specification of the test kit, MAO-B protein (5 μg/ml) and different concentrations of the test compound were pre-incubated at room temperature for 10 minutes, and then 150 μM benzylamine hydrochloride, 1 U/mL HRP and 200 μM Amplex Red reagent were added to start the reaction. The relative inhibition rate of each concentration group were calculated according to the experimental method of MAO-A.
# According to the above method, the inhibition of the compound against the activity of the MAO-B was measured, and the range of IC50 was obtained according to the inhibition rates at 10 μM, 1 μM and 0.1 μM.
# VAP-1 = molecular target: T2, VAP-1 (Homo sapiens, UniProt Q16853); assay: Inhibition of the enzymatic activity of VAP-1 in vitro (Amplex Red); type: biochemical; conditions: VAP-1 protein about 20 nM, 10 min pre-incubation, benzylamine substrate; read-out: IC50, inhibition against the enzymatic activity of VAP-1
# T2 construct: purchased R&D Systems
# T2 sequence (Q16853 1-763): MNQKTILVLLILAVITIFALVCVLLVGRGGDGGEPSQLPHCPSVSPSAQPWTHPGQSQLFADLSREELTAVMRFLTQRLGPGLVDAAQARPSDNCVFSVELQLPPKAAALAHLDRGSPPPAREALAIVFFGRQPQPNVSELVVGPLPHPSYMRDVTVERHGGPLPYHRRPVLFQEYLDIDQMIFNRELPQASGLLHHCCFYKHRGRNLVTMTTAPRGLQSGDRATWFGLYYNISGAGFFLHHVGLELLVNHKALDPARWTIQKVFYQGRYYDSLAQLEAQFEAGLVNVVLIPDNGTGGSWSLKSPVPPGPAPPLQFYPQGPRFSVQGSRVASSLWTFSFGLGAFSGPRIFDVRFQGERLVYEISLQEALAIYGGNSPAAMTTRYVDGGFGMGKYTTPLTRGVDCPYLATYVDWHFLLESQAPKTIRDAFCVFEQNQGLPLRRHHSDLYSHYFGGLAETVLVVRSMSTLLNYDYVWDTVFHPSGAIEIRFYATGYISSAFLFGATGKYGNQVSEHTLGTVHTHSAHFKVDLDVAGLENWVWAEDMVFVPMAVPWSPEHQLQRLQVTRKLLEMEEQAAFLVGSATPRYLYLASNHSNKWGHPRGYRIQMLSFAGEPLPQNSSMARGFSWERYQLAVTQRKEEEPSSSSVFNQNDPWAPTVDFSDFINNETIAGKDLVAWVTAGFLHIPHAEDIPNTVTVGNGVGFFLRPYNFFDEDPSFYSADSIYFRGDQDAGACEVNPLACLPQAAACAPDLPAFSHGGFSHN
# Protocol: Inhibition Experiment Against the Enzymatic Activity of VAP-1(Vascular Adhesion Protein 1) in vitro
# Test kit: Amplex® Red Monoamine Oxidase Assay, Manufacturer: ThermoFisher
# Reaction buffer solution: 50 mM PBS, pH 7.4
# Enzyme: VAP-1, Manufacturer: R&D Systems
# VAP-1 protein (about 20 nM) and different concentrations of the test compound were pre-incubated at room temperature for 10 minutes, followed by an addition of […] benzylamine hydrochloride, 1 U/mL HRP and 200 μM Amplex Red reagent according to the specification of the test kit to start the reaction. The reaction plate was placed in the enzyme marker, and in kinetic mode, fluorescence signals were measured at Ex/Em=540/590 nm. The relative inhibition activity of each concentration group was calculated, wherein the ratio (slope) of fluorescence signal to reaction time in the linear range is the reaction rate, the vehicle group (DMSO) is the negative control, and the reaction buffer solution group (without enzymes and the compounds) is the blank control. The half inhibition concentration (IC50) of the compound was calculated according to four-parameter model fitting curve.
# DAO = molecular target: T3, DAO (Homo sapiens, UniProt P19801); assay: Inhibition of the enzymatic activity of DAO; type: biochemical; conditions: DAO 15 μg/ml, histamine substrate; read-out: IC50, inhibition against the enzymatic activity of DAO
# T3 construct: purchased R&D Systems
# T3 sequence (P19801 20-751): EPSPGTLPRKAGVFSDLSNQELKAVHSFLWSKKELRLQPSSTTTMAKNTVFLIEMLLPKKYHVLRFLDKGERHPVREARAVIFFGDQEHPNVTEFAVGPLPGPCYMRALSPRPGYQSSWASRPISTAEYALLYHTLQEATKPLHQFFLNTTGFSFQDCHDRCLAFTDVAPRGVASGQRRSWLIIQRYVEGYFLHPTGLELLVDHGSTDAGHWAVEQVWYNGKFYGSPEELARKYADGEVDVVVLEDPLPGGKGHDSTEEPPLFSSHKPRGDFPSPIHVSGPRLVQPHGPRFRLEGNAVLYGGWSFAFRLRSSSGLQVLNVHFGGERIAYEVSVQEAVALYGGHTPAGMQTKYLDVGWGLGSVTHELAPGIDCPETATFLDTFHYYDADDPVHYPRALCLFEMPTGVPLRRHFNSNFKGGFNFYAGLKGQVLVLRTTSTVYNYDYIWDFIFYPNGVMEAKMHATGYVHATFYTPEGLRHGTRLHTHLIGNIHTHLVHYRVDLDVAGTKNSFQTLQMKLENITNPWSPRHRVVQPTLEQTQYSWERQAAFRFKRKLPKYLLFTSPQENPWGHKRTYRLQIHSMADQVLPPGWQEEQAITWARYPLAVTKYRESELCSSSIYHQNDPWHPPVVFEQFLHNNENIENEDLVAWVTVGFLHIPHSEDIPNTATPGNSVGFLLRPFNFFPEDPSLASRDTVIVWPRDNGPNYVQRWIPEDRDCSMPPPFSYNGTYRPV
# Protocol: Inhibition Experiment Against the Enzymatic Activity of DAO (Diamine Oxidase)
# as §1
# Protein: DAO, manufacturer: R&D Systems
# DAO protein (15 μg/ml) and different concentrations of the test compound were pre-incubated at room temperature for 20 minutes, and then 100 μM Histamine-dihydrochloride, 1 U/mL HRP and 200 μM Amplex Red reagent were added to start the reaction. The inhibition rate of each concentration groups were calculated according to the experimental method of MAO-A.
# MAO-A = molecular target: T4, MAO-A (Homo sapiens, UniProt P21397); assay: Inhibition of the enzymatic activity of MAO-A; type: biochemical; conditions: range of IC50 from inhibition rates at 100 μM and 10 μM; read-out: IC50, inhibition against the enzymatic activity of MAO-A
# T4 construct: purchased Sigma Aldrich
# T4 sequence (P21397 1-527): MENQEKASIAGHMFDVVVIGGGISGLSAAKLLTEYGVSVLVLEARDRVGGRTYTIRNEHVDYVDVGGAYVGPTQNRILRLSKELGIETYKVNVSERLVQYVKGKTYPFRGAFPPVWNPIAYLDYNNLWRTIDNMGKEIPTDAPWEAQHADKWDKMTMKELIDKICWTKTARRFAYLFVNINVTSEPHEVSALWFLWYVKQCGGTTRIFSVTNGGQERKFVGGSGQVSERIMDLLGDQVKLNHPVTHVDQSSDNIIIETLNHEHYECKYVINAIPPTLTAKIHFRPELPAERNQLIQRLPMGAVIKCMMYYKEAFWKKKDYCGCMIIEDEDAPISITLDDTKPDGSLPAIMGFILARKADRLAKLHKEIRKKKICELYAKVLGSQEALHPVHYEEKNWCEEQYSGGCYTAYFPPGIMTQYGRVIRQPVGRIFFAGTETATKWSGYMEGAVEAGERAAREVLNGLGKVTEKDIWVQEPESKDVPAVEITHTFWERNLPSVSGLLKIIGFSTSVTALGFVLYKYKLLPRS
# Protocol: Inhibition Experiment Against the Enzymatic Activity of MAO-A (Monoamine Oxidase Type A)
# as §1
# 2. Reaction Buffer Solution: 50 mM PBS, pH 7.4
# Protein: MAO-A, manufacturer: Sigma Aldrich
# According to the method as described in the specification of the kit, MAO-A protein (15 μg/ml) and different concentrations of the test compound were pre-incubated at room temperature for 30 minutes, and then 200 μM p-tyramine hydrochloride, 1 U/mL HRP and 200 µM Amplex Red reagent were added to start the reaction. In kinetic mode, fluorescence signals were measured at Ex/Em=540/590 nm. The inhibition rate of each concentration group was calculated, wherein the ratio of fluorescence signal to reaction time ratio is the reaction rate, the vehicle group (DMSO) is the negative control, and the reaction buffer solution group (without enzymes and the compounds) is the blank control.
# Percent inhibition rate (%)=(1-(reaction rate of each compound concentration group−reaction rate of the blank group)/(reaction rate of vehicle group−reaction rate of the blank group))*100.
# According to the above method, the inhibition of the compound against the enzymatic activity of MAO-A was measured, and the range of IC50 was obtained according to the inhibition rates at 100 μM and 10 μM.
# hERG = molecular target: T5, hERG (Homo sapiens, UniProt Q12809); assay: hERG fluorescence polarization inhibition experiment; conditions: human, probe tracer having high affinity to hERG (kit tracer), hERG cell membrane, 25° C. 2 hours, read-out: hERG (IC50 range, competitive binding vs tracer)
# T5 construct: purchased ThermoFisher; host or cells: hERG cell membrane supplied with the kit
# T5 sequence (Q12809 whole entry): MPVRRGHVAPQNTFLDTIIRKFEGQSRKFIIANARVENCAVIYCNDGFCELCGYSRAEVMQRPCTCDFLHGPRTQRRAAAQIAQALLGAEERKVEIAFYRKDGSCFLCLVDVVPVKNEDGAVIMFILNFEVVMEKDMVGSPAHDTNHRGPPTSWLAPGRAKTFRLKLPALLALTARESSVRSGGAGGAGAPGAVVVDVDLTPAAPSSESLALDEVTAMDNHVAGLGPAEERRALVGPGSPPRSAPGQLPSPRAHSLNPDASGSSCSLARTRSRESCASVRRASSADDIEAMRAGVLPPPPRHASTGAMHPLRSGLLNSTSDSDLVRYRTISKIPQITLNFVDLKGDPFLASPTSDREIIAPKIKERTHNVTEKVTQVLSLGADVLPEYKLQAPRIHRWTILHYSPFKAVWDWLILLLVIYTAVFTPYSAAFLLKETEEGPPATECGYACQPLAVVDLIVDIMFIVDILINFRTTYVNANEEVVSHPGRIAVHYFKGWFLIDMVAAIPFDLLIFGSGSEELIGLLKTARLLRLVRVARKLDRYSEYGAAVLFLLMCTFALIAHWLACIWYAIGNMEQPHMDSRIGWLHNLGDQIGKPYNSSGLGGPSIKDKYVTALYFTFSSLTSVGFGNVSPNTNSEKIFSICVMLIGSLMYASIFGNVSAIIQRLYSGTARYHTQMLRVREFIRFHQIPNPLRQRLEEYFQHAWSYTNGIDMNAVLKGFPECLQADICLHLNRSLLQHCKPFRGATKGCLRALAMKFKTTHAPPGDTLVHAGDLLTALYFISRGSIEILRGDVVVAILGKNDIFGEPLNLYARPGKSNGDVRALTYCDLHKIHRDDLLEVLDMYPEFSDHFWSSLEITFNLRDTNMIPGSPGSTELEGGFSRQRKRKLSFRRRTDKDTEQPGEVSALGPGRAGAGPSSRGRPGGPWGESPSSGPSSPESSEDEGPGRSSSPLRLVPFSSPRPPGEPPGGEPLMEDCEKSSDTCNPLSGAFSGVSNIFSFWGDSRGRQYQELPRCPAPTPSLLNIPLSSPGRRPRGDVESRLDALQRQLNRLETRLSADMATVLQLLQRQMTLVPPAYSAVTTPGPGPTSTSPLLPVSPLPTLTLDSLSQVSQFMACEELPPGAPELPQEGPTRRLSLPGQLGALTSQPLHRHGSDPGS
# Protocol: hERG (Ether-a-go-go-related Gene Potassium Channel) Inhibition Experiment
# Reagent: Predictor™ hERG Fluorescence Polarization Assay Kit, Manufacturer: ThermoFisher
# The above test kit was used to evaluate the potential of the compound for inducing heart QT prolongation. According to the method as indicated in the specification of the test kit, the test compound, the positive control (E4031) and negative control (Experimental buffer solution) in the kit were added to a microwell plate containing hERG cell membrane, and then a tracer having high affinity to hERG was added. The microwell plate was then incubated at 25° C. for 2 hours, a BMG PHAREStar polyfunctional enzyme marker was used to test the variations in the fluorescent polarization value. By calculating the percent inhibition rates (%) at different concentrations, the range of the half inhibition concentration (IC50) was determined:
# Percent inhibition rate (%)=(1-(mP of the test compound-mP of 30 μM E4031)/(mP of experimental buffer solution-mP of 30 μM E4031))*100.
Molecule,IC50 (MAO-B),IC50 (MAO-A),IC50 (VAP-1),IC50 (DAO),IC50 at 2 h (hERG)
"NC/C(=C\F)COc1ccc(C(=O)Nc2ccc3c(c2)OCCO3)cc1 [TM114-E, (E)-4-((2-aminomethyl-3-fluoroallyl)oxy)-N-(2,3-dihydrobenzo[b][1,4]dioxa-6-yl)benzamide trifluoroacetate]",,> 10 µM,1.1 ± 0.2 nM,,
"NC/C(=C/F)COc1ccc(C(=O)Nc2ccc3c(c2)OCCO3)cc1 [TM114-Z, (Z)-4-((2-aminomethyl-3-fluoroallyl)oxy)-N-(2,3-dihydrobenzo[b][1,4]dioxa-6-yl)benzamide trifluoroacetate]",,> 10 µM,0.8 ± 0.1 nM,,
"(Z)-6-((2-(methylamino)-3-fluoroallyl)oxy)-2-methyl-3,4-dihydroisoquinolin-1(2H)-one trifluoroacetate [TM66-Z]",> 10 µM,,1.6 ± 0.2 nM,,
"(Z)-6-((2-(methylamino)-3-fluoroallyl)oxy)-3,3-dimethyl-3,4-dihydroisoquinolin-1(2H)-one trifluoroacetate [TM38-Z]",> 10 µM,,2.9 ± 0.3 nM,> 100 nM,

# The next lines start with results.
IC50 (MAO-B),IC50 (MAO-A),Molecule,IC50 (VAP-1),IC50 (DAO),IC50 at 2 h (hERG)
> 10 µM,,"NC/C(=C/F)COc1ccc2c(c1)C(=O)CC2 [TM7-Z, (Z)-6-((2-aminomethyl-3-fluoroallyl)oxy)-2,3-dihydro-1-indenone trifluoroacetate]",3.8 ± 0.4 nM,> 100 nM,
> 0.1 µM,> 100 µM,"NC/C(=C/F)COc1ccc(C(=O)NC2CCOCC2)cc1 [TM76-Z, (Z)-N-(tetrahydro-2H-pyran-4-yl)-4-((2-aminomethyl-3-fluoroallyl)oxy)-benzamide trifluoroacetate]",1.8 ± 0.2 nM,,
,> 100 µM,"NC/C(=C/F)COc1ccc2c(c1)CNC2=O [TM77-Z, (Z)-5-((2-aminomethyl-3-fluoroallyl)oxy)isoindol-1-one trifluoroacetate]",,,> 10 µM
> 0.1 µM,> 100 µM,"NC/C(=C\F)COc1ccc(C(=O)NCc2ccccn2)cc1 [TM112-E, (E)-4-((2-aminomethyl-3-fluoroallyl)oxy)-N-(pyridin-2-ylmethyl)benzamide trifluoroacetate]",3.2 ± 0.4 nM,,
